Test results taken from patent US12006310B2, “Preparation and application of triterpenoids with effect of improving glucose and lipid metabolism disorders” (SERICULTURAL&AGRI-FOOD RESEARCH INSTITUTE GUANGDONG ACADEMY …, priority 2022, dated 2024).
Read-outs that look alike come from different tables or passages of the source.

How the values were obtained:
[1] = test system: primary isolated hepatic parenchymal cells of SD rats; assay: Hepatic gluconeogenesis inhibitory activity in primary hepatocytes; type: cell-based; details: for inhibition at 20 µM / inhibition at 40 µM: Rattus norvegicus, Hepatocyte, read-out: hepatic gluconeogenesis inhibitory activity
From the text: In this embodiment, primary isolated hepatic parenchymal cells of SD rats (purchased from Experimental Animal Center of Southern Medical University) were used as a model, and berberine, a traditional Chinese medicine as a hypoglycemic agent, was used as a positive control to evaluate an impact of the novel triterpenoid compound (23R, 25E)-3β-hydroxy-23-methoxycucurbita-6,25-dien-5β,19-olide3-O-β-d-allopyranoside and Momordicoside G, and compositions thereof in different proportions (novel triterpenoid compound:Momordicoside G=1:0.5, 1:1.0, or 1:1.5) on hepatic gluconeogenesis, thereby further elaborating beneficial effects of the present invention. The process was as follows:
In-situ perfusion digestion was used to digest SD rat liver with type IV collagenase. After being dispersed, hepatocytes were transferred to a 49% Percoll separation solution for centrifugation. After supernatant was discarded, the cells adhered for 6 hours to a 24-well plate coated with 0.2% gelatin. After starvation in a serum-free low-sugar medium for 8 hours, the supernatant was discarded, the cells were washed with PBS buffer, and then a reaction solution (sugar-free DMEM containing 2 mM sodium pyruvate and 20 mM sodium lactate) was added, waiting for a sample test.
Triterpenoid compounds (a novel triterpenoid compound and Momordicoside G) were dissolved in dimethyl sulfoxide (DMSO) to prepare […] mother liquor. Through dilution with the foregoing reaction solution, the final concentrations of the triterpenoid compounds finally added into cell culture wells were 20 μM and 40 μM respectively, and the final concentration of the DMSO was 0.4%. A negative control was a reaction solution containing the DMSO with the same concentration (0.4%). Berberine, a positive control, was prepared into 40 mM with ultrapure water, the final concentrations for the test were 20 μM and 40 μM, and the final concentration of the DMSO was kept at 0.4%. To-be-tested samples were added into the cell reaction solution, and continued to be cultured for 6 hours. Then the glucose concentration in the culture medium (that is, the reaction solution) of each well was measured, and then the medium was discarded. After being washed with PBS, the cells were lysed with 250 mM NaOH, and the protein concentration was measured by using a Coomassie brilliant blue method. By reading an absorbance value, the concentration of glucose in the medium in all sample wells and the concentration of protein after lysis were determined by using a standard curve method, and a ratio of the two was used to measure an average gluconeogenesis level of the cells in the wells.

3T3-L1 preadipocytes = assay: Inhibitory activity against 3T3-L1 preadipocyte-induced differentiation (oil red O staining); type: cell-based, mouse; details: for content of lipid droplets after oil red O staining: 20 μM and 40 μM, compared with differentiation solution group
Procedure: A mouse embryonic fibroblast 3T3-L1 cell line (preadipocytes) was purchased from Shanghai Cell Bank, Chinese Academy of Sciences.
In the test, samples fell into an undifferentiation control group (cultured with a normal DMEM), a negative control group (cultured with a DMEM containing a differentiation solution), and a sample intervention group [cultured with a DMEM containing a differentiation solution+a or 40 μM triterpenoid compound or triterpenoid composition (novel triterpenoid compound:Momordicoside G=0.5, 1.0, or 1.5)]. Differentiation was induced by using a methylisobutylxanthine, dexamethasone and insulin, (MDI) induction medium (the induction medium is a differentiation solution, and the differentiation solution includes a high-sugar DMEM containing 0.5 mmol/L IBMX, 1 μmol/L DEX, 10 mg/L insulin, and 10% FCS). 3T3-L1 preadipocytes were cultured in an incubator with 5% CO2 and 37° C. saturated humidity, and cultured in the DMEM containing 10% FCS until the density of monolayer adherent cells was greater than or equal to 90%. After being washed with Hanks' balanced salt solution (HBSS), the cells were digested by trypsin, and then inoculated into a 6-well culture plate (1×10^5 cells/well). After cell contact inhibition, a fresh DMEM containing 10% FCS was used for fusion culture for 2 days. On the 3rd day (that is, the 0th day of differentiation), the cells were cultured in the differentiation solution for culture, and 0.1% DMSO and a novel triterpenoid compound (23R, 25E)-3β-hydroxy-23-methoxycucurbita-6,25-dien-5β,19-olide3-O-β-d-allopyranoside with concentration gradients of 20 μM and 40 μM or known compound Momordicoside G or a composition of the two were added in the sample intervention group. 0.1% DMSO was added in the negative control group. On the 2nd day of differentiation, the medium was replaced with a DMEM containing only 10 mg/L insulin and 10% FCS, the samples of each group continued to be cultured, and the medium was replaced once every 2 days until the experiment ended on the 8th day of differentiation. After the experiment ended, the medium was discarded, the cells were washed twice with cold PBS, and the cells were fixed with 4% paraformaldehyde solution for 60 min. After paraformaldehyde was removed and PBS was added for washing, the fixed cells were stained with an oil red O dye kit (Solarbio, G1262-4) for 1 hour, and the cells were washed with 60% isopropanol for 3 times to remove the uncolored oil red O dye and were photographed for observation. After the observation, the cells were lysed with lysate (containing 4% NP-40), and an absorbance value at 490 nm was measured, and calculated by using an OD value.

[2] = 20 μM, 6 hours culture, primary hepatocytes
[3] = 40 μM, 6 hours culture, primary hepatocytes

| Molecule | inhibition at 20 µM [1, 2] | inhibition at 40 µM [1, 3] | content of lipid droplets after oil red O staining (3T3-L1 preadipocytes) | inhibition at 20 µM (3T3-L1 preadipocytes; Mus musculus, 3T3-L1, 20 μM, 8th day of differentiation, oil red O, absorbance 490 nm, vs differentiation solution group, read-out: inhibition rate on differentiation of 3T3-L1 preadipocytes) | inhibition at 40 µM (3T3-L1 preadipocytes; Mus musculus, 3T3-L1, 40 μM, 8th day of differentiation, oil red O, absorbance 490 nm, vs differentiation solution group, read-out: inhibition rate on differentiation of 3T3-L1 preadipocytes) | inhibition at 20 µM ([1]; 6 h) | inhibition at 40 µM ([1]; 6 h) | inhibition rate on differentiation of 3T3-L1 preadipocytes (3T3-L1 preadipocytes; 20 μM, 8th day of differentiation, oil red O, absorbance 490 nm, vs differentiation solution group) | inhibition rate on differentiation of 3T3-L1 preadipocytes (3T3-L1 preadipocytes; 40 μM, 8th day of differentiation, oil red O, absorbance 490 nm, vs differentiation solution group) | hepatic gluconeogenesis inhibitory activity [1, 2] | hepatic gluconeogenesis inhibitory activity [1, 3] |
| --- | --- | --- | --- | --- | --- | --- | --- | --- | --- | --- | --- |
| COc1ccc2cc3[n+](cc2c1OC)CCc1cc2c(cc1-3)OCO2 [berberine] | 15.6% | 35.2% | – | – | – | – | – | – | – | – | – |
| COC(C=C(C)C)C[C@@H](C)[C@H]1CC[C@@]2(C)C3C=CC45OC(=O)[C@]3(CC[C@]12C)C4CC[C@H](O[C@@H]1O[C@H](CO)[C@H](O)[C@H](O)[C@H]1O)C5(C)C (stereo partly drawn) [novel triterpenoid compound, (23R, 25E)-3β-hydroxy-23-methoxycucurbita-6,25-dien-5β,19-olide3-O-β-d-allopyranoside] | – | – | decreased significantly | 35.5% | 56.4% | 32.1% | 28.9% | – | – | – | – |
| Momordicoside G | – | – | decreased significantly | – | – | – | – | 23.77% | 51.27% | 20.75% | 34.42% |
